Measurements: ChEMBL document CHEMBL5465560, “Selectivity Literature for EUbOPEN Chemogenomic Library” (2024)
Blank lines part the entries; values can stand above or below the compound they belong to.

Columns and labels:
[1] = molecular target: T1, Serine/threonine-protein kinase Nek5 (Homo sapiens) (UniProt Q6P3R8); test: Selectivity interaction (KinomeScan (DiscoverX)) EUB0000655a NEK5; settings: at 10 µM
T1 sequence (whole entry): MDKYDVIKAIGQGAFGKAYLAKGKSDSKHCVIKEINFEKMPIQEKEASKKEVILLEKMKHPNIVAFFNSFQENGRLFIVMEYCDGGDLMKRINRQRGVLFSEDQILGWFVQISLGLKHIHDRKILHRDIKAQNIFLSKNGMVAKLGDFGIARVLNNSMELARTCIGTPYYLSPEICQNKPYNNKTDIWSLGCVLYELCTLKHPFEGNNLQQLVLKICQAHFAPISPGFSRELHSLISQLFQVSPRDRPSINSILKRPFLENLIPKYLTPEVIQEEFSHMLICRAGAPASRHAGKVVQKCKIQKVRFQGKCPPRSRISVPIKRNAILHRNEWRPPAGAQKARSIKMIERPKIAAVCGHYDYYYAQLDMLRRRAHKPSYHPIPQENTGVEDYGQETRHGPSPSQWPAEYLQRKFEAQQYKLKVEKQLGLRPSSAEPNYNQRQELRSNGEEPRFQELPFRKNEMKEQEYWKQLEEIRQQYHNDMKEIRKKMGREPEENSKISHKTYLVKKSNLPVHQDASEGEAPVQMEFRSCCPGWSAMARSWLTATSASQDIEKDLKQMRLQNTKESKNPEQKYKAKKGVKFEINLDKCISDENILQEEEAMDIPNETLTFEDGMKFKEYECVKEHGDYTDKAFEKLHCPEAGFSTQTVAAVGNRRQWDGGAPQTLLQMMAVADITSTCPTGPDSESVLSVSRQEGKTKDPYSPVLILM

Histamine H3 receptor = Histamine H3 receptor (Homo sapiens, UniProt Q9Y5N1); test: Selectivity interaction (GPCR panel (PDSP screen)) EUB0001079a HRH3; settings: at 10 µM
[2] = molecular target: Serine/threonine-protein kinase PLK2 (Homo sapiens, UniProt Q9NYY3); test: Selectivity interaction (KinomeScan (DiscoverX)) EUB0001079a PLK2; settings: at 1 µM
[3] = molecular target: Tyrosine-protein kinase Lyn (Homo sapiens, UniProt P07948); test: Selectivity interaction (KinomeScan (DiscoverX)) EUB0000607a LYN; settings: at 10 µM
[4] = molecular target: Casein kinase I isoform gamma-3 (Homo sapiens) (UniProt Q9Y6M4); test: Selectivity interaction (Kinase panel (Invitrogen)) EUB0000639a CSNK1G3; settings: at 200 nM
[5] = molecular target: T2, Muscle, skeletal receptor tyrosine-protein kinase (Homo sapiens) (UniProt O15146); test: Selectivity interaction (Kinase panel (Invitrogen)) EUB0000639a MUSK; settings: at 200 nM
T2 sequence (whole entry): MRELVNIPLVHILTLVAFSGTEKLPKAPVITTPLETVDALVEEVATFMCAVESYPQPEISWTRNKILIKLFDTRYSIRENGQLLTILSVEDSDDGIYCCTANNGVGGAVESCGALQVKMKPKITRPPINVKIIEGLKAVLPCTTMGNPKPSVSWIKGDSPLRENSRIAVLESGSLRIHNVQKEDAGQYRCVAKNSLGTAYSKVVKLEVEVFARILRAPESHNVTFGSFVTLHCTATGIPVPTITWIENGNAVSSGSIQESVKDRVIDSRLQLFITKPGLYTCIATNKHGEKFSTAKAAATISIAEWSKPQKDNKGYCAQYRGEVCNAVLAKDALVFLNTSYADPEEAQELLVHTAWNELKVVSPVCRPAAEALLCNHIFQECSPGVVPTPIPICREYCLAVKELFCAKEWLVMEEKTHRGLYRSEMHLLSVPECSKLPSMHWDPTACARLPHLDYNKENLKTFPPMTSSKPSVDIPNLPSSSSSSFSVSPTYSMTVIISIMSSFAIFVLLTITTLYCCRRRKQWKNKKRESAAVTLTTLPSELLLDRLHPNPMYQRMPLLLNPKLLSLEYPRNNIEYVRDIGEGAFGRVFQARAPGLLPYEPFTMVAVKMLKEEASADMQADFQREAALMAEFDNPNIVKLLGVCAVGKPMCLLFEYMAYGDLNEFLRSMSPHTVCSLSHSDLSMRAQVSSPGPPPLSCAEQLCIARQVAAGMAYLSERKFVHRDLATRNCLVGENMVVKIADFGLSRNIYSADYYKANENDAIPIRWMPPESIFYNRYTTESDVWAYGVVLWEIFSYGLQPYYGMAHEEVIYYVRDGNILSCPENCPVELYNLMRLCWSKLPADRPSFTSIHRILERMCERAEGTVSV

[6] = molecular target: Tyrosine-protein kinase SYK (Homo sapiens, UniProt P43405); test: Selectivity interaction (ActivX KiNativ screen (kinase selectivity in THP-1 cell lysates)) EUB0000639a SYK; assay type: subcellular; settings: lysate, at 0.04 µM
[7] = molecular target: T3, Dual specificity mitogen-activated protein kinase kinase 3 (Homo sapiens) (UniProt P46734); test: Selectivity interaction (KinomeScan (DiscoverX)) EUB0001049a MAP2K3; settings: at 1 µM
T3 sequence (whole entry): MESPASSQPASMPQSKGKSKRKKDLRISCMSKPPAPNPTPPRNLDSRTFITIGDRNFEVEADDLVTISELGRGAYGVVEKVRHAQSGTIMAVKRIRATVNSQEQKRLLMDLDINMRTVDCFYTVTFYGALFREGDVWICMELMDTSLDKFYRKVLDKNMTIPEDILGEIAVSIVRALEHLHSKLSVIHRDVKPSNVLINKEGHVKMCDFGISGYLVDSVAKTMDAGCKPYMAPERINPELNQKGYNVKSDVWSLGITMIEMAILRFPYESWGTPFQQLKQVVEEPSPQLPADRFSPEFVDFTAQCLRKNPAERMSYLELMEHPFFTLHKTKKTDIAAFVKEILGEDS

[8] = molecular target: T4, Dual specificity mitogen-activated protein kinase kinase 7 (Homo sapiens) (UniProt O14733); test: Selectivity interaction (KinomeScan (DiscoverX)) EUB0001049a MAP2K7; settings: at 1 µM
T4 sequence (whole entry): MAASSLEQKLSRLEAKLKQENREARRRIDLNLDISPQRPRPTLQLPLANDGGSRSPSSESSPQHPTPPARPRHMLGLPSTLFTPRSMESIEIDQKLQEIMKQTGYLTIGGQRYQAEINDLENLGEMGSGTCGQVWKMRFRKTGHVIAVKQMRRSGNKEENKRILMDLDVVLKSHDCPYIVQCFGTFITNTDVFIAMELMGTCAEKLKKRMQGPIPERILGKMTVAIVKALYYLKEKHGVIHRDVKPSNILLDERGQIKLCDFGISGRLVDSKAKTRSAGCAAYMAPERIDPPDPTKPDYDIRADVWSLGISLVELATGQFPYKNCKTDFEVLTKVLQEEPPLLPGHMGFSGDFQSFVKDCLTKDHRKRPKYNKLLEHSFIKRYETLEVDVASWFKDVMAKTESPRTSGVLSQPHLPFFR

[9] = molecular target: LIM domain kinase 1 (Homo sapiens) (UniProt P53667); test: Selectivity interaction (KinomeScan (DiscoverX)) EUB0000666a LIMK1; settings: at 10 µM
Sequence of LIM domain kinase 1 (Homo sapiens) (P53667 whole entry, looked up, the tested form may be a part): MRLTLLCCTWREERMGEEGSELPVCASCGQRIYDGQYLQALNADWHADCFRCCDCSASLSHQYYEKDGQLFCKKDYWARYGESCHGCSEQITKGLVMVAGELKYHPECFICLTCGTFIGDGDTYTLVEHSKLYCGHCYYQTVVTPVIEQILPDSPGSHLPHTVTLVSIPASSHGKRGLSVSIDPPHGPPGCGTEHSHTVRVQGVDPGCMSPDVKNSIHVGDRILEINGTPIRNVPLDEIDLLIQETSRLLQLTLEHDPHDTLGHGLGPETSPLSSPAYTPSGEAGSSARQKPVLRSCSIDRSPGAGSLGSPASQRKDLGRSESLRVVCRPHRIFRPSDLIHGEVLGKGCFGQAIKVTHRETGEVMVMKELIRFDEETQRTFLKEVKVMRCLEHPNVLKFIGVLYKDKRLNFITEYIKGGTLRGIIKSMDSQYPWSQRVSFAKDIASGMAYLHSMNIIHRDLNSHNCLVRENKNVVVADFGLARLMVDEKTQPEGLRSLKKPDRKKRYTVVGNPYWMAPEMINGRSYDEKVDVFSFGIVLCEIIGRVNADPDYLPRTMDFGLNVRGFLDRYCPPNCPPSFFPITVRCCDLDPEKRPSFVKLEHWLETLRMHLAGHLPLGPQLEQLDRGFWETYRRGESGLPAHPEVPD

Sequence of Tyrosine-protein kinase Lyn (P07948 2-512 limits assumed): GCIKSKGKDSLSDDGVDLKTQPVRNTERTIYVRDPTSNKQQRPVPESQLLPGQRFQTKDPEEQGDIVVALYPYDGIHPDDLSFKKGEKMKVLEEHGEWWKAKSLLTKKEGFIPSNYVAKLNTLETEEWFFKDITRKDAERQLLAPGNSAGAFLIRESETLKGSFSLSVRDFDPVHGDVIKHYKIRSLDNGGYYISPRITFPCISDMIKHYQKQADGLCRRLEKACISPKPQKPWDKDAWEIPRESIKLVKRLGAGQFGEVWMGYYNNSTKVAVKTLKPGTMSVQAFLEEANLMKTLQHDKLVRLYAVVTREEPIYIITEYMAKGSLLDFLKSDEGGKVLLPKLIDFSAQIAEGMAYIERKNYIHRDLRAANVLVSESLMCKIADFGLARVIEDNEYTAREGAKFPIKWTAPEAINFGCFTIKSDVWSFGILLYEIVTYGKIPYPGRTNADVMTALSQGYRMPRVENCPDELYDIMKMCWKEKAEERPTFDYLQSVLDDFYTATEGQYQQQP
Sequence of Histamine H3 receptor (Q9Y5N1 whole entry): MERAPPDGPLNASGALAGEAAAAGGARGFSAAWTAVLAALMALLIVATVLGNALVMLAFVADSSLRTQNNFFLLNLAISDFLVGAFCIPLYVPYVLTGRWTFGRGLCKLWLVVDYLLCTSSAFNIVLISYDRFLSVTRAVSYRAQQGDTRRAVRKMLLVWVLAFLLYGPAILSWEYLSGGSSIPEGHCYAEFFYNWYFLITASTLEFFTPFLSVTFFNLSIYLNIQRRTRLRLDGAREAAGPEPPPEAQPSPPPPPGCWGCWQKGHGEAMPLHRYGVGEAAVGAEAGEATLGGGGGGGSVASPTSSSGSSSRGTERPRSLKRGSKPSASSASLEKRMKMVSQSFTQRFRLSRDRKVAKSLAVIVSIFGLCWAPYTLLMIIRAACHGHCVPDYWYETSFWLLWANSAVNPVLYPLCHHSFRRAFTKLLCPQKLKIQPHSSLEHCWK
Sequence of Casein kinase I isoform gamma-3 (Homo sapiens) (Q9Y6M4 whole entry, looked up, canonical isoform): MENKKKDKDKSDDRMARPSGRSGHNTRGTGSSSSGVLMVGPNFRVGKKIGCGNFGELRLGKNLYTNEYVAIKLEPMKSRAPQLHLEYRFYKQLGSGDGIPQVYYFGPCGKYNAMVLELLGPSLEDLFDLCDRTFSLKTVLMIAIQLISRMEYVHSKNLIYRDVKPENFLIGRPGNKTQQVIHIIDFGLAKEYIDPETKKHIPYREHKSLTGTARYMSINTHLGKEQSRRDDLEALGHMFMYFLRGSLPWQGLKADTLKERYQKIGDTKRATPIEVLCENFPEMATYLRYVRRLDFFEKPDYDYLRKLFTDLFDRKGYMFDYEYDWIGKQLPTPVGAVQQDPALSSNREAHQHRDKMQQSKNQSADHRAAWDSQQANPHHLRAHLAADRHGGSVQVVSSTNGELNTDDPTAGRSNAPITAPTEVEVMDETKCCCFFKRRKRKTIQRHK
Sequence of Serine/threonine-protein kinase PLK2 (Q9NYY3 whole entry, looked up): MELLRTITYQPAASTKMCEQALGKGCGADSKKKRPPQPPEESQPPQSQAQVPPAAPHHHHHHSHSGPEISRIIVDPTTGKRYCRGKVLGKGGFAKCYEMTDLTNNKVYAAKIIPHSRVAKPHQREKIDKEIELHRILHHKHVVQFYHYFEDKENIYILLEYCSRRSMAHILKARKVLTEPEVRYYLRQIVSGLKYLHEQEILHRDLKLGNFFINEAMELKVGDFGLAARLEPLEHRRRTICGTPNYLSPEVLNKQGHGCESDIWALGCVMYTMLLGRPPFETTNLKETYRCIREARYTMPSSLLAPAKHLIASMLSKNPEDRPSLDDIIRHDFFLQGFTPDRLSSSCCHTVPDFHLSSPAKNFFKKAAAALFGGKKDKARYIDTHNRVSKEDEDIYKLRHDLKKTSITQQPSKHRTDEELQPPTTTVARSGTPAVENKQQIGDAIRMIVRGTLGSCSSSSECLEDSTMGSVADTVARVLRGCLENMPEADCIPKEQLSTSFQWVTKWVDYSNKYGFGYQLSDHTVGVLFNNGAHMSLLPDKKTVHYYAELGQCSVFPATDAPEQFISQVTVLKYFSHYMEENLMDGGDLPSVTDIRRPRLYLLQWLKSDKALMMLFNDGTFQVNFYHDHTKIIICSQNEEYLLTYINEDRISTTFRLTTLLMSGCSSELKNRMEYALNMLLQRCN

Compound: CN(C)CCOc1ccc(-c2nc(-c3ccncc3)c(-c3ccc4c(c3)CC/C4=N\O)[nH]2)cc1
% of control [1]: 74%

Compound: Nc1cnc(N2CCc3cc(S(=O)(=O)Nc4c(F)cc(Cl)cc4F)cc(N4CCCC4=O)c32)nc1 [TP-020n]
% of inhibition (Histamine H3 receptor): -1.21% | % of control [2]: 100%

Compound: CNC(=O)Nc1ccc(-c2nc(N3CC4CCC(C3)O4)c3cnn(C4CCC5(CC4)OCCO5)c3n2)cc1
% of control [3]: 85%

% of inhibition [4]: 62.9% | % of inhibition [5]: -2.77% | % of inhibition [6]: 5.5%
Compound: CC[C@@H]1[C@H](F)C(=O)N[C@@H]1COc1nccc2cc(C(N)=O)c(OC)cc12 [ZIMLOVISERTIB]

Compound: COc1cc(Nc2nc(C)cc(-c3cnn4nc(OC)ccc34)n2)cc(C(F)(F)F)c1
% of control [7]: 86% | % of control [8]: 99%

Compound: O=C(NOC[C@H](O)CO)c1ccc(F)c(F)c1Nc1ccc(I)cc1F
% of control [9]: 68%
